pIC50: −log10 of the molar value. Where a name gives a salt, the structure may show the parent alone. Read-outs that look alike come from different tables or passages of the source.
Tests used:
Experiment in all cases: biochemical
MMP-1 = target: T1, MMP-1 (Homo sapiens, UniProt P03956); conditions: read-out: MMP-1 IC50
T1 construct: made in house; host or cells: transfected HT-1080 cells (provided by Dr. Harold Welgus, Washington University)
T1 sequence (P03956 100-469): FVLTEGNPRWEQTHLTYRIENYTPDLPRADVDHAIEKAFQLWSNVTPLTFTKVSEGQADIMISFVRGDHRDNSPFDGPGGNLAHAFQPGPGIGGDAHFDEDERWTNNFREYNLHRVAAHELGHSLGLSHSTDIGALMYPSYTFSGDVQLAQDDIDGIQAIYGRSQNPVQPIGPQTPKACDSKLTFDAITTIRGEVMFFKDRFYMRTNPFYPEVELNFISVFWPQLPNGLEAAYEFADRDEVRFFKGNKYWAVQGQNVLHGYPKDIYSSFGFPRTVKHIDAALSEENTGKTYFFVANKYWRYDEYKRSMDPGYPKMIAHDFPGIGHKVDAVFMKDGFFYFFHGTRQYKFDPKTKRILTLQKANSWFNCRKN
Summary of the method: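 APMA- or trypsin-activated enzymes were preincubated with inhibitor for 5 min at room temperature, then the fluorogenic substrate MCA-Pro-Leu-Gly-Leu-Dpa-Ala-Arg-NH2 was added to a final 4 μM.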

MMP-13 = target: T2, MMP-13 (Homo sapiens, UniProt P45452); conditions: for pIC50: read-out: MMP-13 IC50
T2 construct: made in house; host or cells: baculovirus / insect cells
Summary of the method: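 Assay buffer 100 mM Tris-HCl, 100 mM NaCl, 10 mM CaCl2, pH 7.5. Activated MMP + inhibitor, 5 min RT; then methoxycoumarin peptide substrate, 4 μM final. Readout fluorescence; IC50 calculated.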

MMP-2 = target: T3, MMP-2 (Homo sapiens, UniProt P08253); conditions: for pIC50: read-out: MMP-2 IC50
T3 construct: made in house; provided by Dr. Gregory Goldberg, Washington University
T3 sequence (P08253 110-660): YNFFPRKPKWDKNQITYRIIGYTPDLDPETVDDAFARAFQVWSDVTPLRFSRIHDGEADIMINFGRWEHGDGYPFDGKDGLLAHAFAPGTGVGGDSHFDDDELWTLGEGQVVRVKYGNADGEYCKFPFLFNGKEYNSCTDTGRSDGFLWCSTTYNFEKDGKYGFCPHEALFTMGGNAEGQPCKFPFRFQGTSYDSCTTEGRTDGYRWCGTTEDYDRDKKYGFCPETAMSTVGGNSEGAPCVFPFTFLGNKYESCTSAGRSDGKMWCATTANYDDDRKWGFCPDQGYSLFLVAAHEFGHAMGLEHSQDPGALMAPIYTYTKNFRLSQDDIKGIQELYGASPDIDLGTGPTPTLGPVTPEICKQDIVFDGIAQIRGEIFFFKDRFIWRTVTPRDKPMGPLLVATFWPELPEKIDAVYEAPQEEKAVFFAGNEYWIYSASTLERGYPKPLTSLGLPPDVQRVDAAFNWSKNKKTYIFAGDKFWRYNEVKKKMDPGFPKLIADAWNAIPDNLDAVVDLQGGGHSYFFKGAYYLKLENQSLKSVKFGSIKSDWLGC
Summary of the method: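 APMA- or trypsin-activated human MMPs (MMP-1 from transfected HT-1080 cells, MMP-2 from transfected cells) preincubated with inhibitor in 1% DMSO at room temperature, then 4 μM MCA-Pro-Leu-Gly-Leu-Dpa-Ala-Arg-NH2 added in Tris/NaCl/CaCl2 buffer pH 7.5. IC50 from fluorescence reduction versus inhibitor concentration.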

[1] = recombinant human MMP-1, MCA peptide substrate 4 μM, pH 7.5, room temperature
[2] = recombinant human MMP-2, MCA peptide substrate 4 μM, pH 7.5, room temperature
[3] = recombinant human MMP-13, MCA peptide substrate 4 μM, pH 7.5, room temperature

Row | SMILES | pIC50 (MMP-1; [1]) | IC50 (MMP-13; MMP-13 IC50 (nM)) [nM] | pIC50 (MMP-2; [2]) | pIC50 (MMP-13; [3]) | IC50 (MMP-2; MMP-2 IC50 (nM)) [nM] | pIC50 (MMP-1) | pIC50 (MMP-13) | pIC50 (MMP-2)
1 | Cc1ccc(N2CCN(c3ccc(S(=O)(=O)C4(C(=O)NO)CCOCC4)cc3)CC2)cc1 [Example 535] | < 5.00 | 1.9 | 7.46 |  |  |  |  | 
2 | CC1CC(C)CN(C(=O)C2CCN(c3ccc(S(=O)(=O)C4(C(=O)NO)CCN(C(=O)CN5CCN(CCOCCO)CC5)CC4)cc3)CC2)C1 (stereo not drawn) [Example 299] | < 5.00 |  | 5.05 | 7.51 |  |  |  | 
3 | CCOc1cc(N2CCC(C(=O)NO)(S(=O)(=O)c3ccc(Oc4ccc(OC(F)(F)F)cc4)cc3)CC2)ncn1 [Example 411] | < 5.00 |  | > 10.00 | 9.70 |  |  |  | 
4 | O=C(NO)C1(S(=O)(=O)c2ccc(N3CCC(OCc4ccc(F)c(C(F)(F)F)c4)CC3)cc2)CCN(C2CC2)CC1 [Example 408] | < 5.00 |  | 6.10 | 7.60 |  |  |  | 
5 | CCc1cccc([C@@H](C)C2CCN(c3ccc(S(=O)(=O)C4(C(=O)NO)CCOCC4)cc3)CC2)c1 [Example 831] | < 5.00 |  | 6.77 | 8.64 |  |  |  | 
6 | O=C(NO)C1(S(=O)(=O)c2ccc(N3CCN(S(=O)(=O)c4cccc5nsnc45)CC3)cc2)CCOCC1 [Example 691] | < 5.00 |  | 6.89 | 8.00 |  |  |  | 
7 | CCCN(CC(=O)N1CCC(C(=O)NO)(S(=O)(=O)c2ccc(Oc3ccc(C(F)(F)F)cc3)cc2)CC1)CC1CC1 [Example 331] | < 5.00 |  | 9.70 | 9.15 |  |  |  | 
8 | O=C(NO)C1(S(=O)(=O)c2ccc(Oc3ccc(SC(F)(F)F)cc3)cc2)CCNCC1 [Example 231, N-Hydroxy-4-[[4-[4-[(trifluoromethyl)thio]phenoxy]phenyl]-sulfonyl]-4-piperidinecarboxamide, Monohydrochloride] | < 5.00 |  | 10.00 | 9.70 |  |  |  | 
9 | CCCN(CCCCC(=O)N1CCC(C(=O)NO)(S(=O)(=O)c2ccc(Oc3ccc(C(F)(F)F)cc3)cc2)CC1)CC1CC1 [Example 346] | < 5.00 |  | 9.70 | 8.92 |  |  |  | 
10 | CCCNC(=O)C1CCN(c2ccc(S(=O)(=O)C3(C(=O)NO)CCOCC3)cc2)CC1 [Example 57] | < 5.00 |  | 5.57 | 7.10 |  |  |  | 
11 | O=C(NO)C1(S(=O)(=O)c2ccc(N3CCC(Oc4ccccc4F)CC3)cc2)CCOCC1 [Example 547] | < 5.00 |  | 7.19 | 8.30 |  |  |  | 
12 | O=C(NO)C1(S(=O)(=O)c2ccc(N3CCCC(COCc4ccc(Cl)c(Cl)c4)C3)cc2)CCOCC1 (stereo not drawn) [Example 508] | < 5.00 |  | 6.68 | 7.71 |  |  |  | 
13 | O=C(NO)C1(S(=O)(=O)c2ccc(N3CCC(Oc4ccccc4O)CC3)cc2)CCOCC1 [Example 835] | < 5.00 |  | 7.70 | 8.22 |  |  |  | 
14 | O=C(NO)C1(S(=O)(=O)c2ccc(N3CCC(c4ccccc4C(F)(F)F)CC3)cc2)CCOCC1 [Example 207] | < 5.00 |  | 6.05 | 7.54 |  |  |  | 
15 | CN(CC1CC1)C(=O)C1CCN(c2ccc(S(=O)(=O)C3(C(=O)NO)CCSCC3)cc2)CC1 [Example 154] | < 5.00 |  | 5.43 | 7.74 |  |  |  | 
16 | O=C(NO)C1(S(=O)(=O)c2ccc(N3CCC(SCc4ccccc4)CC3)cc2)CCOCC1 [Example 707] | < 5.00 |  | 8.05 | 8.64 |  |  |  | 
17 | O=C(NO)C1(S(=O)(=O)c2ccc(N3CCCCC3CCOCc3ccc(Cl)c(Cl)c3)cc2)CCOCC1 (stereo not drawn) [Example 513] | < 5.00 |  | < 5.00 | 5.11 |  |  |  | 
18 | C=CCOC1CCN(c2ccc(S(=O)(=O)C3(C(=O)NO)CCOCC3)cc2)CC1 [Example 635] | < 5.00 |  | 6.59 | 7.86 |  |  |  | 

Row | SMILES | pIC50 (MMP-1; [1]) | IC50 (MMP-13; MMP-13 IC50 (nM)) [nM] | pIC50 (MMP-2; [2]) | pIC50 (MMP-13; [3]) | IC50 (MMP-2; MMP-2 IC50 (nM)) [nM] | pIC50 (MMP-1) | pIC50 (MMP-13) | pIC50 (MMP-2)
19 | O=C(NO)C1(S(=O)(=O)c2ccc(N3CCN(c4ccccc4F)CC3)cc2)CCOCC1 [Example 83] | 5.51 |  |  | 8.57 | 21.1 |  |  | 
20 | COCCN1CCC(C(=O)NO)(S(=O)(=O)c2ccc(N3CCC(OCc4ccc(F)c(C(F)(F)F)c4)CC3)cc2)CC1 [Example 446] | < 5.00 |  | 5.15 | 6.57 |  |  |  | 
21 | O=C(NO)C1(S(=O)(=O)c2ccc(N3CC4CC3CN4Cc3ccccc3)cc2)CCOCC1 (stereo not drawn) [Example 493] | < 5.00 |  | < 5.00 | < 5.00 |  |  |  | 
22 | C[C@@H]1C[C@H](C)CN(C(=O)C2CCN(c3ccc(S(=O)(=O)C4(C(=O)NO)CCN(C(=O)OC(C)(C)C)CC4)cc3)CC2)C1 [Example 241, rel-1,1-Dimethylethyl 4-[[4-[4-[[(3R,5S)-3,5-Dimethyl-1-piperidinyl]carbonyl]-1-piperidinyl]-phenyl]sulfonyl]-4-[(hydroxyamino)carbonyl]-1-piperidinecarboxylate] | < 5.00 |  | < 5.00 | 8.32 |  |  |  | 
23 | O=C(NO)C1(S(=O)(=O)c2ccc(Oc3ccc(OC(F)(F)F)cc3)cc2)CCN(C(=S)Nc2cccnc2)CC1 [Example 201] | < 5.00 |  | 9.70 | 9.52 |  |  |  | 
24 | N#Cc1ccccc1COC1CCN(c2ccc(S(=O)(=O)C3(C(=O)NO)CCOCC3)cc2)CC1 [Example 559] | < 5.00 |  | 7.10 | 8.14 |  |  |  | 
25 | O=C(NO)C1(S(=O)(=O)c2ccc(Oc3ccc(C(F)(F)F)cc3)cc2)CCN(c2ncccc2C(F)(F)F)CC1 [Example 375] | < 5.00 |  | 7.81 | 7.77 |  |  |  | 
26 | CC1CN(c2ccc(S(=O)(=O)C3(C(=O)NO)CCOCC3)cc2)CCC1OCc1ccc(C(F)(F)F)cc1 (stereo not drawn) [Example 583] | < 5.00 |  | 5.33 | 7.15 |  |  |  | 
27 | COc1ccccc1COC1CCC(Oc2ccc(S(=O)(=O)C3(C(=O)NO)CCOCC3)cc2)C1 (stereo not drawn) [Example 740] | < 5.00 |  | 6.76 | 7.21 |  |  |  | 
28 | O=C(CCCCNCc1cccnc1)N1CCC(C(=O)NO)(S(=O)(=O)c2ccc(Oc3ccc(C(F)(F)F)cc3)cc2)CC1 [Example 333] | < 5.00 |  | 9.70 | 9.10 |  |  |  | 
29 | O=C(NO)C1(S(=O)(=O)c2ccc(N3CCC(C(O)c4ccccc4)CC3)cc2)CCOCC1 (stereo not drawn) [Example 827] | < 5.00 |  | 6.27 | 8.00 |  |  |  | 
30 | O=C(NO)C1(S(=O)(=O)c2ccc(N3CC=CCC3)cc2)CCOCC1 [Example 210] | 5.40 |  | 8.35 | 8.27 |  |  |  | 
31 | CC(=O)c1ccc(OC2CCN(c3ccc(S(=O)(=O)C4(C(=O)NO)CCOCC4)cc3)CC2)c(Cl)c1 [Example 471] | < 5.00 |  | < 5.00 | 5.62 |  |  |  | 
32 | O=C(NO)C1(S(=O)(=O)c2ccc(N3CCN(C4CCCCC4)CC3)cc2)CCOCC1 [Example 489] | < 5.00 |  | 5.72 | 6.11 |  |  |  | 
33 | Cc1ccccc1N1CC2CC1CN2c1ccc(S(=O)(=O)C2(C(=O)NO)CCOCC2)cc1 (stereo not drawn) [Example 494] | < 5.00 |  | 5.48 | 6.19 |  |  |  | 
34 | C[C@H]1C[C@H](C)CN(C(=O)C2CCN(c3ccc(S(=O)(=O)C4(C(=O)NO)CCN(C(=O)CCl)CC4)cc3)CC2)C1 [Example 275] |  |  |  |  |  | < 5.00 | 7.15 | < 5.00
35 | COCCN1CCC(C(=O)NO)(S(=O)(=O)c2ccc(N3CCC(C(=O)N(C)c4ccccc4)CC3)cc2)CC1 [Example 244, 1-[4-[[4-[(Hydroxyamino)carbonyl]-1-(2-methoxyethyl)-4-piperidinyl]-sulfonyl]phenyl]-N-methyl-N-phenyl-4-piperidinecarboxamide, Monohydrate] | < 5.00 |  | 5.36 | 7.17 |  |  |  | 

From patent publication US6750228B1, “Aromatic sulfone hydroxamic acid metalloprotease inhibitor” (priority 1997, dated 2004)
